Assay results from patent publication US8076487B2, “Pyridone derivative and herbicide” (Kumiai Chemical Industry Co., Ltd., priority 2006, dated 2011).

Key:
Type in all cases: in vivo
[1] = test system: Japanese bulrush (Scirpus juncoides Roxb.); test: Test Example 1: herbicidal effect by soil application to paddy field; conditions: paddy field soil application; active ingredient 1,000 g per 1 hectare; wettable powder added dropwise to water surface the day after sowing; examined on the 21st day after application
Procedure, shortened: (§1)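 Plants were sown in flooded (3 cm) paddy soil and evaluated for herbicidal effect 21 days after soil application in a greenhouse.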

[2] = test system: heartshape false pickerelweed (Monochoria vaginalis (Burm.f.) C.Presl); test: as above; conditions: paddy field soil application; active ingredient 1,000 g per 1 hectare; wettable powder added dropwise to water surface the day after sowing; examined on the 21st day after application
Procedure, shortened: as §1

[3] = test system: early watergrass (Echinochloa oryzicola Vasing); test: as above; conditions: paddy field soil application; active ingredient 1,000 g per 1 hectare; wettable powder added dropwise to water surface the day after sowing; examined on the 21st day after application
Procedure, shortened: as §1

[4] = test system: green foxtail (Setaria viridis (L.) P. Beauv.); test: Test Example 2: herbicidal effect by soil application to upland field; conditions: soil surface spray, upland field soil, 1,000 g active ingredient per hectare, 21st day after application
Procedure, shortened: (§2)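 Dose was 1,000 g active ingredient per hectare, applied as a wettable powder diluted in water and sprayed evenly over the soil of sown, covered pots at a 1,000 L/ha equivalent. Effect was judged by a standard scale 21 d later under greenhouse conditions.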

[5] = test system: barnyardgrass (Echinochloa crus-galli (L.) P. Beauv. var. crus-galli); test: as above; conditions: soil surface spray, upland field soil, 1,000 g active ingredient per hectare, 21st day after application
Procedure, shortened: as §2

[6] = test system: slender amaranth (Amaranthus viridis L.); test: as above; conditions: soil surface spray, upland field soil, 1,000 g active ingredient per hectare, 21st day after application
Procedure, shortened: as §2

[7] = test system: velvetleaf (Abutilon theophrasti medicus); test: as above; conditions: soil surface spray, upland field soil, 1,000 g active ingredient per hectare, 21st day after application
Procedure, shortened: as §2

[8] = test system: green foxtail (Setaria viridis (L.) P. Beauv.); test: Test Example 3: herbicidal effect by application to upland field (foliage treatment); conditions: foliage treatment, 1,000 g active ingredient per 1 hectare, 14th day after application, greenhouse
Procedure, shortened: (§3)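 Sow in field soil; grow 2 weeks in greenhouse; spray foliage from above with wettable-powder dilution (1,000 g AI/ha, 1,000 L/ha); return to greenhouse; score effect at day 14 against a standard.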

[9] = test system: barnyardgrass (Echinochloa crus-galli (L.) P. Beauv. var. crus-galli); test: as above; conditions: foliage treatment, 1,000 g active ingredient per 1 hectare, 14th day after application, greenhouse
Procedure, shortened: as §3

[10] = test system: slender amaranth (Amaranthus viridis L.); test: as above; conditions: foliage treatment, 1,000 g active ingredient per 1 hectare, 14th day after application, greenhouse
Procedure, shortened: as §3

[11] = test system: velvetleaf (Abutilon theophrasti medicus); test: as above; conditions: foliage treatment, 1,000 g active ingredient per 1 hectare, 14th day after application, greenhouse
Procedure, shortened: as §3

| Compound | herbicidal effect, Scirpus juncoides Roxb. [1] | herbicidal effect, Monochoria vaginalis (Burm. f.) C. Presl [2] | herbicidal effect, Echinochloa oryzicola Vasing [3] | herbicidal effect (index), Green Foxtail [4] | herbicidal effect (index), Barnyardgrass [5] | herbicidal effect (index), Slender Amaranth [6] | herbicidal effect (index), Velvetleaf [7] | herbicidal effect, Green Foxtail [8] | herbicidal effect, Barnyardgrass [9] | herbicidal effect, Slender Amaranth [10] | herbicidal effect, Velvetleaf [11] |
| --- | --- | --- | --- | --- | --- | --- | --- | --- | --- | --- | --- |
| CCCNn1c(C(F)(F)F)ccc(C(=O)C2=C(O)CCCC2=O)c1=O [I-159] | 5 (90% or more of herbicidal effect and crop phytotoxicity) | 5 (90% or more of herbicidal effect and crop phytotoxicity) | 5 (90% or more of herbicidal effect and crop phytotoxicity) | 5 (90% or more of herbicidal effect and crop phytotoxicity) | 5 (90% or more of herbicidal effect and crop phytotoxicity) | 5 (90% or more of herbicidal effect and crop phytotoxicity) | 5 (90% or more of herbicidal effect and crop phytotoxicity) | 5 (90% or more of herbicidal effect and crop phytotoxicity) | 5 (90% or more of herbicidal effect and crop phytotoxicity) | 5 (90% or more of herbicidal effect and crop phytotoxicity) | 5 (90% or more of herbicidal effect and crop phytotoxicity) |
| CCCCNn1c(C(F)(F)F)ccc(C(=O)C2=C(O)CCCC2=O)c1=O [I-161] | 5 (90% or more of herbicidal effect and crop phytotoxicity) | 5 (90% or more of herbicidal effect and crop phytotoxicity) | 5 (90% or more of herbicidal effect and crop phytotoxicity) | 5 (90% or more of herbicidal effect and crop phytotoxicity) | 5 (90% or more of herbicidal effect and crop phytotoxicity) | 5 (90% or more of herbicidal effect and crop phytotoxicity) | 5 (90% or more of herbicidal effect and crop phytotoxicity) | 5 (90% or more of herbicidal effect and crop phytotoxicity) | 5 (90% or more of herbicidal effect and crop phytotoxicity) | 5 (90% or more of herbicidal effect and crop phytotoxicity) | 5 (90% or more of herbicidal effect and crop phytotoxicity) |
| CC(C)CNn1c(C(F)(F)F)ccc(C(=O)C2=C(O)CCCC2=O)c1=O [I-162] | 5 (90% or more of herbicidal effect and crop phytotoxicity) | 5 (90% or more of herbicidal effect and crop phytotoxicity) | 5 (90% or more of herbicidal effect and crop phytotoxicity) | 5 (90% or more of herbicidal effect and crop phytotoxicity) | 5 (90% or more of herbicidal effect and crop phytotoxicity) | 4 (70 to less than 90% of herbicidal effect and crop phytotoxicity) | 5 (90% or more of herbicidal effect and crop phytotoxicity) | 5 (90% or more of herbicidal effect and crop phytotoxicity) | 5 (90% or more of herbicidal effect and crop phytotoxicity) | 5 (90% or more of herbicidal effect and crop phytotoxicity) | 5 (90% or more of herbicidal effect and crop phytotoxicity) |
| O=C1CCCC(O)=C1C(=O)c1ccc(C(F)(F)F)n(NCC2CC2)c1=O [I-164] | 5 (90% or more of herbicidal effect and crop phytotoxicity) | 5 (90% or more of herbicidal effect and crop phytotoxicity) | 5 (90% or more of herbicidal effect and crop phytotoxicity) | 5 (90% or more of herbicidal effect and crop phytotoxicity) | 5 (90% or more of herbicidal effect and crop phytotoxicity) | 5 (90% or more of herbicidal effect and crop phytotoxicity) | 5 (90% or more of herbicidal effect and crop phytotoxicity) | 5 (90% or more of herbicidal effect and crop phytotoxicity) | 5 (90% or more of herbicidal effect and crop phytotoxicity) | 5 (90% or more of herbicidal effect and crop phytotoxicity) | 5 (90% or more of herbicidal effect and crop phytotoxicity) |
| O=C1CCCC(O)=C1C(=O)c1ccc(C(F)(F)F)n(NCCCF)c1=O [I-168] | 5 (90% or more of herbicidal effect and crop phytotoxicity) | 5 (90% or more of herbicidal effect and crop phytotoxicity) | 5 (90% or more of herbicidal effect and crop phytotoxicity) | 5 (90% or more of herbicidal effect and crop phytotoxicity) | 5 (90% or more of herbicidal effect and crop phytotoxicity) | 5 (90% or more of herbicidal effect and crop phytotoxicity) | 5 (90% or more of herbicidal effect and crop phytotoxicity) | 5 (90% or more of herbicidal effect and crop phytotoxicity) | 5 (90% or more of herbicidal effect and crop phytotoxicity) | 5 (90% or more of herbicidal effect and crop phytotoxicity) | 5 (90% or more of herbicidal effect and crop phytotoxicity) |
| COCCNn1c(C(F)(F)F)ccc(C(=O)C2=C(O)CCCC2=O)c1=O [I-169] | 5 (90% or more of herbicidal effect and crop phytotoxicity) | 5 (90% or more of herbicidal effect and crop phytotoxicity) | 5 (90% or more of herbicidal effect and crop phytotoxicity) | 5 (90% or more of herbicidal effect and crop phytotoxicity) | 5 (90% or more of herbicidal effect and crop phytotoxicity) | 5 (90% or more of herbicidal effect and crop phytotoxicity) | 5 (90% or more of herbicidal effect and crop phytotoxicity) | 5 (90% or more of herbicidal effect and crop phytotoxicity) | 5 (90% or more of herbicidal effect and crop phytotoxicity) | 5 (90% or more of herbicidal effect and crop phytotoxicity) | 5 (90% or more of herbicidal effect and crop phytotoxicity) |
| O=C1CCCC(O)=C1C(=O)c1ccc(C(F)(F)F)n(NCC2CCCO2)c1=O (stereo not shown) [I-170] | 5 (90% or more of herbicidal effect and crop phytotoxicity) | 5 (90% or more of herbicidal effect and crop phytotoxicity) | 5 (90% or more of herbicidal effect and crop phytotoxicity) | 5 (90% or more of herbicidal effect and crop phytotoxicity) | 5 (90% or more of herbicidal effect and crop phytotoxicity) | 5 (90% or more of herbicidal effect and crop phytotoxicity) | 5 (90% or more of herbicidal effect and crop phytotoxicity) | 4 (70 to less than 90% of herbicidal effect and crop phytotoxicity) | 5 (90% or more of herbicidal effect and crop phytotoxicity) | 5 (90% or more of herbicidal effect and crop phytotoxicity) | 5 (90% or more of herbicidal effect and crop phytotoxicity) |
| CN(C)n1c(C(F)(F)F)ccc(C(=O)C2=C(O)CCCC2=O)c1=O [I-171] | 5 (90% or more of herbicidal effect and crop phytotoxicity) | 5 (90% or more of herbicidal effect and crop phytotoxicity) | 5 (90% or more of herbicidal effect and crop phytotoxicity) | 4 (70 to less than 90% of herbicidal effect and crop phytotoxicity) | 5 (90% or more of herbicidal effect and crop phytotoxicity) | 5 (90% or more of herbicidal effect and crop phytotoxicity) | 5 (90% or more of herbicidal effect and crop phytotoxicity) | 4 (70 to less than 90% of herbicidal effect and crop phytotoxicity) | 5 (90% or more of herbicidal effect and crop phytotoxicity) | 5 (90% or more of herbicidal effect and crop phytotoxicity) | 5 (90% or more of herbicidal effect and crop phytotoxicity) |
